Test results as given in patent US6806359B1, “Hormone receptor compositions and methods” (The Salk Institute for Biological Studies, priority 1986, dated 2004).

Tests used:
[1] = system: hGR; assay: Steroid binding assay ([^3H]DEX) in cytosol of COS cells transfected with hGR or mutants; set-up: species or system human; conditions: steroid-binding capacity as percentage of wild-type hGR
Procedure: (§1) The cells are then cultured in the presence or absence of hormone. CV-1 cells were used to monitor induction of CAT activity, and COS cells were used to measure steroid-binding capacity and the expression of hGR protein.
COS cells were lysed in hypotonic buffer containing 10 mM Tris-HCl (pH 7.5), 10 mM NaCl, 1 mM EDTA, 5 micrograms/ml antipain, 5 micrograms/ml leupeptin, and 0.5 mM PMSF by Dounce homogenization and centrifuged 10 min. at 15,000×g to yield the cytosolic fraction. Incubations were performed in hypotonic buffer adjusted to 100 mM NaCl and contained 100 micrograms of protein from the cytosolic fraction and 2×10^−8[^3H]DEX (Amersham, 95 Ci/mmol) in total volume of 200 microliters. Nonspecific binding was measured by the addition of 2×10^−6 unlabeled DEX. Reactions were carried out at 0° C. for 2 hr., followed by a 5 min. incubation with 20 microliters of 50% dextran-coated charcoal (10:1 activated charcoal:dextran) and centrifugation at 15,000×g for 2 min. at 4° C. Supernatants were counted by liquid scintillation methods in a Beckman LS-7800 liquid scintillation spectrophotometer. Each assay usually gave 2500-3000 cpm [^3H] labeled steroid; unlabeled DEX competed for 70% of this binding.

[2] = system: hGR; assay: hGR functional assay: CAT activity in CV-1 cells cotransfected with pRShGR alpha (or mutant) and pMTVCAT; assay type: cell-based, human; conditions: percentage of wild-type hGR activity; CV-1 cells cultured 2 days with 10 nM DEX
Description: The assay system and strategy used to study the expression of functional hGR from the cloned cDNA (See Experimental Section I) is shown in FIG. 11. In these experiments, a glucocorticoid-responsive promoter/enhancer element linked to a reporter gene was introduced into a receptor-negative cell. […] For our assay, we chose to use the MTV LTR fused to the sequence coding for chloramphenicol acetyltransferase (CAT) (EC2.3.1.28). […] Cotransfection of pMTVCAT (or pGMCAT) with a receptor expression plasmid provides functional receptors that allow induction of CAT activity upon treatment of the transfected cells with glucocorticoid hormone. In addition, biochemical studies such as steroid binding activity and Western blot analysis of the expressed receptors can be performed simultaneously.
as §1
CAT assays were performed as indicated in Experimental Procedures (See Section II. F.). C, chloramphenicol; AC, 3-acetylchloramphenicol.
The levels of CAT activity were plotted as percentages of the maximal response observe in a particular experiment.
Each plasmid preparation used for transfection was purified using two consecutive CsCl-EtBr equilibrium gradients. […]

[3] = system: rat GH 5′-flanking sequences in rat pituitary GC2 cells; assay: T3 responsiveness of rat GH 5′-flanking sequence-CAT gene fusions transfected into GC2 cells; assay type: cell-based; conditions: 5′ deletion to −107 with rat prolactin enhancer
[4] = system: rat GH 5′-flanking sequences in rat pituitary GC2 cells; assay: as above; assay type: cell-based; conditions: for stimulation of CAT activity: GH −235 to −45 fused to tk promoter
Description: […]. To overcome this problem, a rat prolactin enhancer element^11 was fused proximal to fragments of the rat GH gene containing 181 and 110 bp of 5′ flanking information. […].
To assay 3′ deletions, fragments of the rat Gh gene were fused to the herpes simplex virus thymidine kinase (HSV tk) promoter. A fragment of the Gh gene extending from position −235 to position −45 from the CAP site produced 2.5-and 2.3-fold stimulations of CAT activity when fused to the tk promoter in native and inverse orientation, respectively (FIG. 57). […]. […].
Thyroid hormone responsiveness of various gene fusions containing rat GH 5′-flanking sequences. FIG. 56, Responsiveness of 5′ and 3′ deletions of the rat GH gene. 5′-deleted fragments of the rat GH gene were fused to the CAT gene in a pSV2CAT-based vector^18, in which the SV40 origin of replication and promoter were removed. […]. The illustrated 3′-deleted fragments were fused to a tk promoter fragment, extending from position −197 to position +54 and placed proximal to the CAT gene in the same vector. […]. Error limits represent the standard error of the mean. Each construction was assayed two to five times. An represents SV40 polyadenylation sites. FIG. 58, Messenger RNA transcription initiation site analysis. The diagram indicates the […] primer complimentary to nucleotides 67 to 89 of the CAT coding sequence used to determine the CAP site of transcripts of plasmids containing the tk promoter. GC cells were transfected with test plasmids and hormone treated as described for the experiments presented in panels a and b. Primer extension analysis was performed on 50 micrograms total RNA. Lanes A and B represent the extension product from cells transfected with a plasmid containing the GH fragment extending from positions 235 to 45 from the CAP site fused to the tk promoter. Lanes C and D represent the extension product from cells transfected with a plasmid containing the tk promoter alone. No extension products were observed. […].
Fusions containing the rat prolactin enhancer were made by excising this fragment (corresponding to rat prolactin sequence nucleotide positions 1831-1530) from plasmid pPSS^11 and inserting it in reverse orientation proximal to the 5′ deletions of the growth hormone element. Fusions containing the HSV tk promoter were made by excising fragments of the GH enhancer from the plasmid GPO (ref. 11) and inserting them into the BamHI and SalI sites of a pSV2CAT-based expression vectors proximal to the tk promoter at positions −197 to +54. Alternatively, the GH enhancer was placed proximal to the promoter at positions −107 to +54 in a pUC8-based vector^20 by insertion into the BamHI and SalI polylinker sites. Site-directed mutagenesis of the GH enhancer element was performed by inserting the fragment from 235-45 bp from the CAP site into the BamHI and SalI sites of M13 mp18. A 21-base oligonucleotide was synthesized which corresponded to antisense GH nucleotides −188 to −157, in which nucleotides −177 to −166 were deleted and replaced by an A nucleotide. This oligonucleotide was used to delete bases −177 to −166 in the GH enhancer using the procedure of Kunkel^21. CAT activity was determined by radioassay of methylated chloramphenicol derivatives after thin layer chromatography^19. Primer extension was by the method of Elsholtz, et al.^12

| Compound | DEX Binding (%) [1] | CAT Activity (%) [2] | T3 regulation of CAT expression (in words) [3] | regulation of CAT expression by T3 ([4]; 5′ deletion to −235 of rat GH gene fused to CAT) | induction of CAT expression by T3 ([4]; 5′-deleted fragment to −181 with rat prolactin enhancer) | increase of correctly initiated CAT mRNA (primer extension) ([4]; 235-45 bp GH fragment fused to tk promoter, 10^−9M T3) | stimulation of CAT activity ([4]; inverse orientation) | stimulation of CAT activity ([4]; native orientation) | stimulation of CAT expression ([4]; construction G29TK) | stimulation of CAT expression (in words) ([4]; construction G293TK, three tandem repeats) | effect on CAT expression (in words) ([4]; mutant G delta 166/177 fused to tk promoter) | stimulation of CAT expression (in words) ([4]; wild-type GH enhancer fused to tk promoter) |
| --- | --- | --- | --- | --- | --- | --- | --- | --- | --- | --- | --- | --- |
| hGR alpha: wild-type human glucocorticoid receptor, alpha form, 777 amino acids | 100% | 100% | – | – | – | – | – | – | – | – | – | – |
| N[C@@H](Cc1cc(I)c(Oc2ccc(O)c(I)c2)c(I)c1)C(=O)O [T3, 3,5,3′-triiodo-L-thyronine] | – | – | abolished T3 regulation | 4.6 fold | 2.6 fold | about 4 fold | 2.3 fold | 2.5 fold | 2.9 fold | five-fold | no effect | ninefold |
